# Results reported in article PMC5423974 (European Journal of Clinical Pharmacology, 2017).
# “And” between values parts separate entries of the source, which are not always exact repeats. Equal values may be shown once. Read-outs that look alike come from different tables or passages of the source. Marks after values point to notes of the source that are not given here.
# Legend:
# [1] = Safety and tolerability in Study 86 (Asian study); type: in vivo, human
# Text: Safety and tolerability findings obtained from Study 86 were summarized and compared descriptively to the safety and tolerability findings from the studies in Western subjects. Additional safety and tolerability data for the Western studies are reported in detail elsewhere and include references.
# [2] = tested on: Breast Cancer Resistance Protein (BCRP); design: method as in earlier work; details: ref 1 Report nos. Be000021–21 and D6244 KMN036, data on file, AstraZeneca; cited from earlier work
# [3] = tested on: UDP glucuronosyltransferase family 1 member A1 (UGT1A1); design: method as in earlier work; details: ref 1 Report nos. Be000021–21 and D6244 KMN036, data on file, AstraZeneca; cited from earlier work
# [4] = tested on: cytochrome P450 2C19 (CYP2C19); design: method as in earlier work; details: ref 1 Report nos. Be000021–21 and D6244 KMN036, data on file, AstraZeneca; cited from earlier work
# [5] = human, in vivo; cited from earlier work
# [6] = Pooled analysis of non-compartmental plasma PK of single-dose selumetinib in healthy subjects, by ethnicity; type: in vivo, human; details: for DN AUC / DN AUC(0–12) / DN Cmax: geometric mean (%CV)
# Description: All the studies included in the pooled analysis were conducted in accordance with the ethical principles outlined in the Declaration of Helsinki and the International Council on Harmonization Good Clinical Practice. Written informed consent was obtained from all subjects prior to any study-related procedures.
# The pooled analysis database was constructed using data collected in 10 studies (Online Resource 1). PK data were taken from Study 86 (Asian study) and Studies 66, 69, 71, 78, 80, 81, 82, 83 and 85 (Western studies), while pharmacogenetic data were obtained from Study 86 (Asian study) and Studies 66 and 83 (Western studies). Informed consent for genetic assessment was as follows: Study 66, 21 of 27 volunteers gave consent (one of these volunteers discontinued treatments); Study 83, all 26 volunteers gave consent; Study 86, 45 of 72 volunteers gave consent.
# Further inclusion criteria for the database included fasted subjects dosed with the selumetinib capsule formulation used for Phase III. This meant exclusion of data from other oral formulations used in study 78 and intravenous formulation used in study 80. Data were included solely from study arms where there was an absence of other treatments (e.g. rifampicin, fluconazole) and from subjects with normal renal and hepatic function.
# A merged dataset containing subject identifier, non-compartmental PK parameters and demographics was constructed.
# The PK parameters AUC, AUC0–12 and Cmax were normalized (abbreviated as DN) for each subject, by dividing the specific PK parameter by the nominal dose (in mg units) and for dose per kg of body weight (abbreviated as DWN) using the following formula: PK parameter value / (nominal dose in mg units / subjects baseline body weight in kg units).
# The majority of subjects in the Western studies were of White ethnicity, thus this formed the reference category for comparison. Statistical comparisons of selumetinib PK were undertaken between the following ethnic groups: Western vs All Asian; White vs Black; White vs All Asian; White vs Japanese; White vs non-Japanese Asian; White vs Indian. The comparisons were performed by fitting multivariate models to the PK parameters of interest (e.g. dose-normalized AUC and Cmax), with a stepwise backward selection of the covariates including ethnicity, age, sex, and weight.
# Bioanalysis was performed by Covance, USA. […] After addition of deuterated internal standard, samples were extracted by protein precipitation by the addition of 4 volumes of methanol:acetonitrile. After centrifugation, the supernatants were […] to dryness under nitrogen at 50°C and reconstituted in methanol;water before analysis. Extraction recovery was approximately 93%. […] The typical liquid chromatography system was a Prominence SIL-20AC (Shimadzu, Tokyo, Japan). A Phenomenex Luna C18 column was used and maintained at 30°C. A gradient mobile phase system was used with 0.1% formic acid in water (A) or acetonitrile (B) with a flow rate of 0.500 mL/min and the gradient running from 25% B to 65% B over 2 minutes then increasing to 95% B over 0.1 minutes and held for 0.5 minutes before re-equilibration. The mass spectrometer used was an API 5000 or 5500 triple quadruple mass spectrometer (AB Sciex, Foster City, CA, USA). This was run in positive electrospray, multiple reaction monitoring, with an ionspray voltage of 5500 V and TurboIonSpray temperature of 600°C with transitions of 459.0/397.2 monitored.
# [7] = Study 86, Asian healthy subjects, 25, 35 and 50 mg
# [8] = All Asian (N = 72), healthy subjects, single dose, doses pooled
# [9] = All Asian group compared with Western group
# [10] = Black (N = 87), healthy subjects, single dose, doses pooled
# [11] = Indian (N = 9), healthy subjects, single dose
# [12] = Japanese (N = 27), healthy subjects, single dose, doses pooled
# [13] = Western (N = 236), healthy subjects, single dose, doses pooled
# [14] = White (N = 149), healthy subjects, single dose, doses pooled
# [15] = non-Japanese Asian (N = 36), healthy subjects, single dose, doses pooled
# [16] = non-Japanese Asian compared to White
smiles,measurement,setting,value
"Cn1cnc2c(F)c(Nc3ccc(Br)cc3Cl)c(C(=O)NOCCO)cc21 [selumetinib, Selumetinib]",number of AEs reported,"[1]; Study 86, Asian healthy subjects",21
same,AE leading to discontinuation of selumetinib,[1]; [7],no AE led to the discontinuation
same,serious adverse event,[1]; [7],no subject experienced a serious adverse event
same,safety or tolerability concerns,"[1]; Study 86, Asian healthy subjects, any dose level (25, 35 and 50 mg)",no safety or tolerability concerns
same,number of AEs deemed related to selumetinib by the Investigator,"[1]; Study 86, of the 21 AEs reported",14
same,substrate of transporter protein,[2],substrate
same,substrate of enzyme,[3],substrate
same,substrate of enzyme,[4],substrate
same,serious AEs,[5],no serious AEs
same,DN AUC,[6]; [8],79.8 ng.h/mL/mg and 79.8 (23.6) ng.h/mL/mg
same,DN AUC(0–12),[6]; [8],61.7 ng.h/mL/mg and 61.7 (24.6) ng.h/mL/mg
same,DN Cmax,[6]; [8],26.3 (30.9) ng/mL/mg
same,tmax,"[6]; All Asian (N = 72), healthy subjects, single dose, median (min, max)","1.0 (1, 4) h"
same,percentage by which dose-normalized AUC is higher,[6]; [9],35%
same,percentage by which dose-normalized Cmax is higher,[6]; [9],39%
same,dose-normalized selumetinib exposure higher,"[6]; Asian subjects compared with Western subjects, single dose 25 to 75 mg",35–39%
same,DN AUC,[6]; [10],53.4 ng.h/mL/mg and 53.4 (26.4) ng.h/mL/mg
same,DN AUC(0–12),[6]; [10],43.3 ng.h/mL/mg and 43.3 (26.7) ng.h/mL/mg
same,DN Cmax,[6]; [10],16.9 (39.6) ng/mL/mg
same,tmax,"[6]; Black (N = 87), healthy subjects, single dose, median (min, max)","1.0 (1, 4) h"
same,DN AUC,[6]; [11],69.5 ng.h/mL/mg and 69.5 (16.7) ng.h/mL/mg
same,DN AUC(0–12),[6]; [11],53.5 ng.h/mL/mg and 53.5 (19.6) ng.h/mL/mg
same,DN Cmax,[6]; [11],28.1 (16.0) ng/mL/mg
same,tmax,"[6]; Indian (N = 9), healthy subjects, single dose, median (min, max)","1.0 (1, 2) h"
same,percentage increase in geomean dose-normalized AUC,[6]; Indian compared to White,22%
same,percentage increase in geomean dose-normalized Cmax,[6]; Indian compared to White,41%
same,DN AUC,[6]; [12],84.8 ng.h/mL/mg and 84.8 (21.0) ng.h/mL/mg
same,DN AUC(0–12),[6]; [12],65.7 ng.h/mL/mg and 65.7 (24.1) ng.h/mL/mg
same,DN Cmax,[6]; [12],28.7 (31.0) ng/mL/mg
same,tmax,"[6]; Japanese (N = 27), healthy subjects, single dose, median (min, max)","1.0 (1, 3) h"
same,percentage increase in geomean dose-normalized AUC,[6]; Japanese compared to White,51%
same,percentage increase in geomean dose-normalized Cmax,[6]; Japanese compared to White,45%
same,DN AUC,"[6]; Western (N = 235), healthy subjects, single dose, doses pooled",52.4 ng.h/mL/mg and 52.4 (24.9)^‡ ng.h/mL/mg
same,t1/2,"[6]; Western (N = 235), healthy subjects, single dose, arithmetic mean (SD)",9.1 (2.91)^‡ h
same,DN AUC(0–12),[6]; [13],42.9 ng.h/mL/mg and 42.9 (25.1) ng.h/mL/mg
same,DN Cmax,[6]; [13],17.4 (35.6) ng/mL/mg
same,tmax,"[6]; Western (N = 236), healthy subjects, single dose, median (min, max)","1.0 (1, 4) h"
same,DN AUC,"[6]; White (N = 148), healthy subjects, single dose, 25-75 mg doses pooled",51.9 ng.h/mL/mg and 51.9 (23.9)^† ng.h/mL/mg
same,DN AUC(0–12),[6]; [14],42.7 ng.h/mL/mg and 42.7 (24.2) ng.h/mL/mg
same,DN Cmax,[6]; [14],17.7 (33.2) ng/mL/mg
same,tmax,"[6]; White (N = 149), healthy subjects, single dose, median (min, max)","1.0 (1, 4) h"
same,half-life,"[6]; human, plasma, oral, 25 mg, Indian (N = 9), healthy subjects, single dose, arithmetic mean (SD)",9.5 h
same,half-life,"[6]; human, plasma, oral, All Asian (N = 72), healthy subjects, single dose, arithmetic mean (SD)",10.4 h
same,half-life,"[6]; human, plasma, oral, Black (N = 87), healthy subjects, single dose, arithmetic mean (SD)",8.7 h
same,half-life,"[6]; human, plasma, oral, Japanese (N = 27), healthy subjects, single dose, arithmetic mean (SD)",11.5 h
same,half-life,"[6]; human, plasma, oral, White (N = 148), healthy subjects, single dose, arithmetic mean (SD)",9.3 h
same,tmax,"[6]; human, plasma, oral, all ethnic groups, read-out: median tmax",1 to 1.6 h
same,half-life,"[6]; human, plasma, oral, non-Japanese Asian (N = 36), healthy subjects, single dose, arithmetic mean (SD)",9.8 h
same,tmax,"[6]; human, plasma, oral, non-Japanese Asian (N = 36), healthy subjects, single dose, median (min, max), read-out: tmax",1.6 h
same,DN AUC,[6]; [15],78.9 ng.h/mL/mg and 78.9 (25.4) ng.h/mL/mg
same,DN AUC(0–12),[6]; [15],61.1 ng.h/mL/mg and 61.1 (24.6) ng.h/mL/mg
same,DN Cmax,[6]; [15],24.3 (32.3) ng/mL/mg
same,differences in the geomeans for dose-normalized AUC and dose-normalized Cmax,[6]; non-Japanese Asian and Indian against Japanese,2 to 18%
same,percentage increase in geomean dose-normalized AUC,[6]; [16],37%
same,percentage increase in geomean dose-normalized Cmax,[6]; [16],20%
